System: HSP47
Conditions: Table 5, stellate cells
Procedure: The in vitro activity for gene expression knockdown using an siRNA was measured using rat stellate cells in DMEM medium according to the following protocol: One day before the transfection, plate the cells in a 96-well plate at 3×10^3 cells per well for Stellate cells with 100 μl of medium containing 10% FBS and culture in a 37° C. incubator containing a humidified atmosphere of 5% CO2 in air. Before transfection, change medium to 90 μl of medium without antibiotics. Prepare the appropriate dilutions of the solution collected from the tubing in PBS buffer so that the addition of 10 μl into each well is sufficient to reach the desired concentration. 48 hours after transfection, wash the cells once with ice-cold PBS. Lyse the cells with 50 μl of Cell-to-Ct Lysis Buffer for 5-30 minutes at ambient temperature. Add 5 μl of Stop Solution and incubate for 2 minutes at ambient temperature. Measure mRNA level by qPCR with TAQMAN immediately. Alternatively, the samples can be frozen at −80° C. and assayed at later times. For qRT-PCR assay: Thaw all reagents on ice. Mix the pooled reagents in 0.2 ml PCR tubes. Dispense the set-up mixture into 384 well plate, 10 μl/well×3. Seal the plate with film, spin down mixture into the bottom of wells. Perform qRT-PCR assay.
In this example, an HSP47 siRNA was used to knockdown HSP47 gene. For TaqMan gene expression assays, HSP47 gene specific TaqMan probe was used.

CCCCC/C=C\C/C=C\CCCCCCCC(=O)OCC(OC(=O)CCCCCCC/C=C\C/C=C\CCCCC)C1CCN(C(=O)CCC(=O)NCCCCC(NC(=O)CCC(=O)N2CCC(C(COC(=O)CCCCCCC/C=C\C/C=C\CCCCC)OC(=O)CCCCCCC/C=C\C/C=C\CCCCC)CC2)C(=O)NCCCOCCOCCOCCOCCOCCCNC(=O)C(CCCCNC(=O)CCC(=O)N2CCC(C(COC(=O)CCCCCCC/C=C\C/C=C\CCCCC)OC(=O)CCCCCCC/C=C\C/C=C\CCCCC)CC2)NC(=O)CCC(=O)N2CCC(C(COC(=O)CCCCCCC/C=C\C/C=C\CCCCC)OC(=O)CCCCCCC/C=C\C/C=C\CCCCC)CC2)CC1 (stereo not drawn) [Compound T11] was tested, and the “% of HSP47 expression in Stellate Cell, Conc siRNA 18 nM” value was 11.1%, the “% of HSP47 expression in Stellate Cell, Conc siRNA 75 nM” value was 4.5% and the “% of HSP47 expression in Stellate Cell, Conc siRNA 300 nM” value was 1.8%.

With CCCCC/C=C\C/C=C\CCCCCCCCOC(=O)[C@H](COC(=O)CCC(=O)NCCCCC(NC(=O)CCC(=O)OC[C@H](NC(=O)CCCCCCC/C=C\C/C=C\CCCCC)C(=O)OCCCCCCCC/C=C\C/C=C\CCCCC)C(=O)NCCCOCCOCCOCCOCCOCCCNC(=O)C(CCCNC(=O)CCC(=O)OC[C@@H](NC(=O)CCCCCCC/C=C\C/C=C\CCCCC)C(=O)OCCCCCCCC/C=C\C/C=C\CCCCC)NC(=O)CCC(=O)OC[C@@H](NC(=O)CCCCCCC/C=C\C/C=C\CCCCC)C(=O)OCCCCCCCC/C=C\C/C=C\CCCCC)NC(=O)CCCCCCC/C=C\C/C=C\CCCCC (stereo partly drawn) [Compound T12] the “% of HSP47 expression in Stellate Cell, Conc siRNA 18 nM” value was 40.2%, the “% of HSP47 expression in Stellate Cell, Conc siRNA 75 nM” value was 8.4% and the “% of HSP47 expression in Stellate Cell, Conc siRNA 300 nM” value was 2.7%.

For CCCCC/C=C\C/C=C\CCCCCCCC(=O)OCCN(CCOC(=O)CCCCCCC/C=C\C/C=C\CCCCC)C(=O)CCC(=O)NCCCC[C@H](NC(C)=O)C(=O)NCCCOCCOCCOCCOCCOCCCNC(=O)[C@H](CCCCNC(=O)CCC(=O)N(CCOC(=O)CCCCCCC/C=C\C/C=C\CCCCC)CCOC(=O)CCCCCCC/C=C\C/C=C\CCCCC)NC(C)=O [Compound T13], the “% of HSP47 expression in Stellate Cell, Conc siRNA 18 nM” value was 21.8%, the “% of HSP47 expression in Stellate Cell, Conc siRNA 75 nM” value was 6.4% and the “% of HSP47 expression in Stellate Cell, Conc siRNA 300 nM” value was 3.1%.

CCCCC/C=C\C/C=C\CCCCCCCC(=O)OCCN(CCOC(=O)CCCCCCC/C=C\C/C=C\CCCCC)C(=O)CCC(=O)NC(CCCCNC(C)=O)C(=O)NCCCOCCOCCOCCOCCOCCCNC(=O)[C@H](CCCCNC(C)=O)NC(=O)CCC(=O)N(CCOC(=O)CCCCCCC/C=C\C/C=C\CCCCC)CCOC(=O)CCCCCCC/C=C\C/C=C\CCCCC (stereo partly drawn) [Compound T14] was tested, and the “% of HSP47 expression in Stellate Cell, Conc siRNA 18 nM” value was 103.3%, the “% of HSP47 expression in Stellate Cell, Conc siRNA 75 nM” value was 59.1% and the “% of HSP47 expression in Stellate Cell, Conc siRNA 300 nM” value was 5.2%.
